Laboratory results published in patent US12545685B2 (Daiichi Sankyo Company, Limited, priority 2011, dated 2026).

How the values were obtained:
[1] = human, microsomes, 0.5 h
Protocol: 100 μl of 100 mM phosphate buffer solution (pH 7.4) containing 3 μM test compound was added to 100 μl of reaction solution containing 100 mM phosphate buffer solution (pH 7.4), 30 mM glucose 6-phosphate, 10 mM MgCl2·6H2O, 3 units/ml glucose 6-phosphate 1-dehydrogenase, and 0.3 to 1.5 mg/ml human liver microsomes and the mixture was incubated at 37° C. for 20 minutes. Then 70 μl of 100 mM phosphate buffer solution (pH 7.4) containing 3 mM NADP+ was added and the mixture was further incubated at 37° C. for 30 minutes to conduct a microsomal metabolism test. The compound was quantified by the internal standard method using a quadrupole mass spectrometer connected to a high performance liquid chromatography apparatus. The metabolic stability (residual percentage of compound: MS %) was determined according to the following formula;
(peak area ratio: peak area of test compound divided by that of internal standard substance)

[2] = target: T1, Mdm2/p53 binding (GST-Mdm2 / His-p53) (Homo sapiens, UniProt Q00987, L33E); test: Mdm2/p53 binding assay (HTRF, His-p53 and GST-Mdm2); details: His-p53 (aa 1-132) and GST-Mdm2 (aa 25-108, L33E) 6.25 nM each; 25°C, 1 hour; values given as ranges
T1 construct: Mdm2 partial protein having Mdm2 amino acids at positions 25 to 108
T1 sequence (Q00987 25-108 L33E): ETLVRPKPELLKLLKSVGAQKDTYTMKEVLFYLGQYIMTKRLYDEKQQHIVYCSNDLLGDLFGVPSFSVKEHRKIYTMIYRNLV
Procedure, shortened: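 His-p53 (aa 1–132) and GST-Mdm2 (aa 25–108, L33E) were prepared at 6.25 nM each in the protein dilution (20 mM HEPES pH 7.4, 150 mM NaCl, 0.1% BSA). Compound in 10% DMSO buffer and XL665 anti-His/Eu anti-GST antibodies (KF buffer) were added, with 1 h at 25 °C. The 665/620 nm TR-FRET ratio gave T/C and a sigmoid-fitted IC50.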

[3] = test system: human lung cancer-derived cell line NCI-H460 having wild-type p53; test: Cell growth inhibition assay (MTT); format: cell-based; details: 72 h, NCI-H460 cells, 3 days culture, values given as ranges, read-out: 50% growth inhibition concentration (GI50 value)
Procedure, shortened: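 NCI-H460 cells (wild-type p53) seeded at 500 cells/well in RPMI1640 with 10% FBS, then treated the next day and grown 3 days at 37 °C. MTT read-out at OD 540 nm (660 nm reference), taken at dosing and at day 3. GI50 derived from T/C (%) dose-response curves.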

metabolic stability (residual percentage of compound: MS %) [1]	IC50 [2] [nM]	GI50 [3] [nM]	Structure (SMILES)
70-100%	–	–	CC1(C)CCC2(CC1)N[C@@H](C(=O)N[C@H]1CC[C@H](c3nnco3)CC1)[C@H](c1cccc(Cl)c1F)[C@]21C(=O)Nc2cc(Cl)ncc21 (relative stereo) [Example 108, (3′R, 4′S, S′R)-6″-chloro-4′-(3-chloro-2-fluorophenyl)-4,4-dimethyl-N-[trans-4-(1,3,4-oxadiazol-2-yl)cyclohexyl]-2″-oxo-1″,2″-dihydrodispiro[cyclohexane-1,2′-pyrrolidine-3′,3″-pyrrolo[3,2-c]pyridine]-5′-carboxamide]
–	1 to 50	1000 to 5000	CC1(C)CCC2(CC1)N[C@@H](C(=O)N[C@H]1CO[C@H](CO)[C@@H](O)C1)[C@H](c1cccc(Cl)c1F)[C@]21C(=O)Nc2nc(Cl)ccc21 [Example 30, (3′R, 4′S,5′R)-6″-chloro-4′-(3-chloro-2-fluorophenyl)-N-[(3R,5S,6R)-5-hydroxy-6-(hydroxymethyl)tetrahydro-2H-pyran-3-yl]-4,4-dimethyl-2″-oxo-1″,2″-dihydrodispiro[cyclohexane-1,2′-pyrrolidine-3′,3″-pyrrolo[2,3-b]pyridine]-5′-carboxamide]
–	1 to 50	500 to 1000	CC1(C)CCC2(CC1)N[C@@H](C(=O)N[C@@H]1CC[C@@H](C(C)(C)O)OC1)[C@H](c1cccc(Cl)c1F)[C@]21C(=O)Nc2nc(Cl)ccc21 [Example 11, (3′R, 4′S,5′R)-6″-chloro-4′-(3-chloro-2-fluorophenyl)-N-[(3R,6S)-6-(1-hydroxy-1-methylethyl)tetrahydro-2H-pyran-3-yl]-4,4-dimethyl-2″-oxo-1″,2″-dihydrodispiro[cyclohexane-1,2′-pyrrolidine-3′,3″-pyrrolo[2,3-b]pyridine]-5′-carboxamide]
–	1 to 50	100 to 500	CC1(C)CCC2(CC1)N[C@@H](C(=O)N[C@@H]1CC[C@@H](C(=O)N3CC(O)C3)OC1)[C@H](c1ccnc(Cl)c1F)[C@]21C(=O)Nc2cc(Cl)ccc21 [Example 107, (3′R, 4′S,5′R)-6″-chloro-4′-(2-chloro-3-fluoropyridin-4-yl)-N-{(3R,6S)-6-[(3-hydroxyazetidin-1-yl)carbonyl]tetrahydro-2H-pyran-3-yl}-4,4-dimethyl-2″-oxo-1″,2″-dihydrodispiro[cyclohexane-1,2′-pyrrolidine-3′,3″-indole]-5′-carboxamide]
–	50 to 100	100 to 500	CC1(C)CCC2(CC1)N[C@@H](C(=O)N[C@H]1C[C@H](C(C)(C)O)C1)[C@H](c1ccnc(Cl)c1F)[C@]21C(=O)Nc2cc(Cl)ccc21 [Example 154, (3′R, 4′S,5′R)-6′-chloro-4′-(2-chloro-3-fluoropyridin-4-yl)-N-[trans-3-(2-hydroxypropan-2-yl)cyclobutyl]-4,4-dimethyl-2″-oxo-1″,2″-dihydrodispiro[cyclohexane-1,2′-pyrrolidine-3′,3″-indole]-5′-carboxamide]
–	1 to 50	< 100	CC1(C)CCC2(CC1)N[C@@H](C(=O)N[C@@H]1CC[C@@H](CO)OC1)[C@H](c1ccnc(Cl)c1F)[C@]21C(=O)Nc2cc(Cl)ccc21 [Example 20, (3′R, 4′S,5′R)-6″-chloro-4′-(2-chloro-3-fluoropyridin-4-yl)-N-[(3R,6S)-6-(hydroxymethyl)tetrahydro-2H-pyran-3-yl]-4,4-dimethyl-2″-oxo-1″,2″-dihydrodispiro[cyclohexane-1,2′-pyrrolidine-3′,3″-indole]-S′-carboxamide]
